The source of these data is patent publication US5340802A, “Peptide analog type-B CCK receptor ligands” (Abbott Laboratories, priority 1993, dated 1994).

Bounds are passed on as bounds.

One test concerns the target T1, Type-B CCK receptors (Cavia porcellus, UniProt H0VZC5).
T1 construct: Cortical and pancreatic membranes were prepared as described; from tissue; host or cells: guinea pig cerebral cortex membranes
T1 sequence (H0VZC5 1-426): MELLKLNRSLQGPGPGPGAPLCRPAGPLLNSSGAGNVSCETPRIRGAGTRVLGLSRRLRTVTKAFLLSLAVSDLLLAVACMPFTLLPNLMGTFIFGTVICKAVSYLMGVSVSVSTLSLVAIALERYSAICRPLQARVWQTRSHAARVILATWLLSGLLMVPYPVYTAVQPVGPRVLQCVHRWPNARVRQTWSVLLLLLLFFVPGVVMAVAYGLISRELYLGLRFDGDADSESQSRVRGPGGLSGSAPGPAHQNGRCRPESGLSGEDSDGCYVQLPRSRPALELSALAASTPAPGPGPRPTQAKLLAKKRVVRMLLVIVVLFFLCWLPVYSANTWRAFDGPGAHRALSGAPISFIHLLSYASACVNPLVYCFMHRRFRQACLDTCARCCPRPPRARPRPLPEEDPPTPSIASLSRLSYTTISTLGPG
The experiment in a line: Radioligand binding ([125I]BH-CCK-8) in guinea pig cerebral cortical membrane preparations. The settings on record: cortical membranes, 30° C., 150 minutes, read-out: IC50 (nM) cortex (Type B). The protocol: CCK-8 (Asp-Tyr(SO3 H)-Met-Gly-Trp-Met-Asp-Phe-NH2), bestatin and phosphoramidon were purchased from Peptide International (Louisville, Ky.). EGTA, HEPES, BSA were purchased from Sigma Chemical Co. (St. Louis, Mo.). […] Male guinea pigs, 250 to 325 g, were obtained from Scientific Small Animal Laboratory and Farm (Arlington Heights, Ill.). Collagenase, code CLSPA, was purchased from Worthington (Frehold, N.J.).
Cortical and pancreatic membranes were prepared as described (Lin and Miller; J. Pharmacol. Exp. Ther., 1985, 232:775-780). In brief, pancreas and cortex were removed and rinsed with ice-cold saline. Visible fat and connective tissues were removed from the pancreas. Tissues were weighed and homogenized in approximately 25 mL of ice-cold 50 mM Tris-HCl buffer, pH 7.4 at 4° C. with a Brinkman Polytron for 30 seconds, setting 7. The homogenates were centrifuged for 10 minutes at 1075×g and the pellet was discarded. The supernantants were saved and centrifuged at 38,730×g for 20 minutes. The resultant pellets were rehomogenized in 25 mL of 50 mM Tris-HCl buffer with a Teflon-glass homogenizer, 5 up and down strokes. The homogenates were centrifuged again at 38,730×g for 20 minutes. The pellets were then resuspended in 20 mM HEPES, containing 1 mM EGTA, 118 mM NaCl, 4.7 mM KCl, 5 mM MgCl2, 100 μ M bestatin, 3 μM phosphoramidon, pH 7.4 at 22° C. with a Teflon-glass homogenizer, 15 up and down strokes. The resuspension volume used for the cortex was 15 mL per g of original wet weight and 60 mL per g for pancreas.
To 1 mL Skatron polystyrene tubes were added 25 uL of test compounds, 25 uL of [^125 I]BH-CCK8 and 200 uL of membrane suspension. The final BSA concentration was 0.1%. The cortical tissues (source of Type-B CCK receptors) were incubated at 30° C. for 150 minutes and pancreatic tissues (source of Type-A CCK receptors) were incubated at 37° C. for 150 minutes. Incubations were terminated by filtration using a Skatron Cell Harvester and SS32 microfiber filter mats. […] IC50 values were determined from the Hill analysis.

Another test concerns the target T2, Type-A CCK receptors (Cavia porcellus, UniProt Q63931).
T2 construct: Cortical and pancreatic membranes were prepared as described; from tissue; host or cells: guinea pig pancreas membranes
T2 sequence (Q63931 1-430): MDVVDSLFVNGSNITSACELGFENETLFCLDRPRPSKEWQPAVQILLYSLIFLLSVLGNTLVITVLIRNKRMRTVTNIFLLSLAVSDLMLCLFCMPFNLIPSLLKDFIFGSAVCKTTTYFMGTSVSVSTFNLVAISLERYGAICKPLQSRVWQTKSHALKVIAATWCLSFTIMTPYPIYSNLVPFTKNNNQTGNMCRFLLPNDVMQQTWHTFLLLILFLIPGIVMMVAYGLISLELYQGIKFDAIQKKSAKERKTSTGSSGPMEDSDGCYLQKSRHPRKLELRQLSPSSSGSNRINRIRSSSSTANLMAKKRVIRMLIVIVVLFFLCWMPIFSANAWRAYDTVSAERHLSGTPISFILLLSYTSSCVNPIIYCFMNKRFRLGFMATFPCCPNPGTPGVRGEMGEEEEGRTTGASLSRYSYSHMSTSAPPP
Put plainly: Radioligand binding ([125I]BH-CCK-8) in guinea pig pancreatic membrane preparations. The note with it: pancreatic membranes, 37° C., 150 minutes, read-out: IC50 (nM) Pancreas (Type A).

With `CC(C)C[C@H](NC(=O)[C@@H]1Cc2c[nH]c3cccc(c23)CC(=O)N1)C(=O)N[C@@H](CC(=O)O)C(=O)N/C(=C\c1ccccc1)C(N)=O` [Example 14, Ctp-Leu-Asp-(dehydro)Phe-NH2], the IC50 is 16 nM at Type-B CCK receptors and over 10000 nM at Type-A CCK receptors.

With `CCC[C@@H]1CCN(C(=O)[C@@H]2Cc3c[nH]c4cccc(c34)CC(=O)N2)[C@@H]1C(=O)N[C@@H](CC(=O)O)C(=O)N[C@@H](Cc1ccccc1)C(N)=O` [Example 35, Ctp-Cpp-Asp-Phe-NH2], the 50% inhibitory concentration (IC50) at Type-B CCK receptors was 18 nM; at Type-A CCK receptors it was 4770 nM.

For `NC(=O)[C@H](Cc1ccccc1)NC(=O)[C@H](CC(=O)O)NC(=O)[C@@H]1CSCCN1C(=O)[C@@H]1Cc2c[nH]c3cccc(c23)CC(=O)N1` [Example 42, Ctp-(1,4-thiazane-3-carbonyl)-Asp-Phe-NH2], the IC50 on Type-B CCK receptors is 8.4 nM; on Type-A CCK receptors, 1300 nM.

In the case of `NC(=O)[C@H](Cc1ccccc1)NC(=O)[C@H](CC(=O)O)NC(=O)[C@@H]1CCCCN1C(=O)[C@@H]1Cc2c[nH]c3cccc(c23)CC(=O)N1` [Example 43, Ctp-Pip-Asp-Phe-NH2], the values for the IC50 on Type-B CCK receptors and on Type-A CCK receptors were 29.9 nM and 11500 nM, respectively.

As usually defined, the IC50 is the concentration that gives 50% inhibition.
